Columns and labels:
[1] = Antioxidant efficacy as assessed by the deoxyribose assay at a concentration of 1.040 mM
[2] = Antioxidant efficacy as assessed by the deoxyribose assay at a concentration of 0.104 mM
[3] = Antioxidant efficacy as assessed by the deoxyribose assay at a concentration of 5.2 mM
[4] = Antioxidant efficacy as assessed by the deoxyribose assay in presence of EDTA (0.104 mM) and phenylalanine (0.208 mM)

inhibition [1]: 42% | inhibition [2]: 20% | inhibition [3]: 51% | inhibition [4]: 2%
SMILES: CCOC(=O)C(Cc1ccccc1)NC(=O)CN(CCN(CC(=O)O)CC(=O)NC(Cc1ccccc1)C(=O)OCC)CC(=O)O (centres undefined)
